Results: publication PMC7181047, “Flame-Made Calcium Phosphate Nanoparticles with High Drug Loading for Delivery of Biologics” (Molecules, 2020)

Key:
Proteinase K [1] = biological target: T1, Proteinase K (Parengyodontium album, UniProt P06873); experiment: Proteinase K degradation assay (SDS-PAGE); assay type: in vitro ADME; settings: 0.5 µg LL-37, 20 ng Proteinase K, 20 mM Tris-HCl pH 8.0, 37 °C, up to 240 min, at least three repetitions
T1 construct: purchased Qiagen, Hilden, Germany
Experimental: A total of 0.5 µg LL-37, either loaded on nanoparticles or not, was subjected to Proteinase K degradation assay. Input samples were taken without Proteinase K added, as a positive control and is considered to be “100%” when calculating protein amounts. LL-37 was incubated in 20 mM Tris-HCl, pH 8.0 with a total of 20 ng Proteinase K (Qiagen, Hilden, Germany) added to the reaction. Samples were incubated at 37 °C until given timepoints where the reaction was stopped by the addition of SDS loading buffer (at a final concentration of 50 mM Tris-HCl pH 6.8, 2% SDS, 10% glycerol, 1% β-mercaptoethanol, 12.5 mM EDTA and 0.02% Bromophenol blue) and samples were then immediately boiled for 10 min at 98 °C.
Samples were loaded onto a NuPAGE 4%–12% Bis-Tris gel (Invitrogen, Carlsbad, CA, USA) and run in MES-buffer (Invitrogen) at 40 mA/gel. Since LL-37 is a small peptide, samples were run only halfway through the gel. The gels where then washed in Mill-Q water 3 times, 10 min before immersion in Imperial Protein Stain (Thermo Scientific) for 1 h. After that Mill-Q water was used to destain the gels before image acquisition on GelDoc XRS+ (Bio-Rad, Hercules, CA, USA). Bands were quantified using Image Studio Lite v. 5.2 (LI-COR Biosciences, Lincoln, NE, USA).

Proteinase K [2] = biological target: T1, Proteinase K; set-up: method as in PMID 10417311; settings: after 2 h; cited from earlier work
Experimental: In order to assess the enzymatic degradation of LL-37 and the protective potential from the CaPS nanocarriers, a degradation assay utilizing Proteinase K was performed (Sodium Dodecyl Sulfate–Polyacrylamide Gel Electrophoresis, SDS-PAGE).

T1 sequence (P06873 106-384): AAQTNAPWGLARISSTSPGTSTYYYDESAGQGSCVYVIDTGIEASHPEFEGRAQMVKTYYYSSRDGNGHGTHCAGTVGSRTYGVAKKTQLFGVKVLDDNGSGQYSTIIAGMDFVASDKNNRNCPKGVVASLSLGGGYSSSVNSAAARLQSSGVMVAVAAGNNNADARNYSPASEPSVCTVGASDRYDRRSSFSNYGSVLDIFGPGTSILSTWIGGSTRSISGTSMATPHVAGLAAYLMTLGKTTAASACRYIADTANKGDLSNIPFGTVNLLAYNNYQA

## CC[C@H](C)[C@H](NC(=O)[C@H](CCCCN)NC(=O)[C@H](CCC(=O)O)NC(=O)[C@H](CCCCN)NC(=O)[C@H](CO)NC(=O)[C@H](CCCCN)NC(=O)[C@H](CCCNC(=N)N)NC(=O)[C@H](Cc1ccccc1)NC(=O)[C@H](Cc1ccccc1)NC(=O)[C@H](CC(=O)O)NC(=O)CNC(=O)[C@H](CC(C)C)NC(=O)[C@@H](N)CC(C)C)C(=O)NCC(=O)N[C@@H](CCCCN)C(=O)N[C@@H](CCC(=O)O)C(=O)N[C@@H](Cc1ccccc1)C(=O)N[C@@H](CCCCN)C(=O)N[C@@H](CCCNC(=N)N)C(=O)N[C@H](C(=O)N[C@H](C(=O)N[C@@H](CCC(N)=O)C(=O)N[C@@H](CCCNC(=N)N)C(=O)N[C@H](C(=O)N[C@@H](CCCCN)C(=O)N[C@@H](CC(=O)O)C(=O)N[C@@H](Cc1ccccc1)C(=O)N[C@@H](CC(C)C)C(=O)N[C@@H](CCCNC(=N)N)C(=O)N[C@@H](CC(N)=O)C(=O)N[C@@H](CC(C)C)C(=O)N[C@H](C(=O)N1CCC[C@H]1C(=O)N[C@@H](CCCNC(=N)N)C(=O)N[C@H](C(=O)N[C@@H](CCC(=O)O)C(=O)N[C@@H](CO)C(=O)O)[C@@H](C)O)C(C)C)[C@@H](C)CC)C(C)C)[C@@H](C)CC [LL-37]
Proteinase K [1]
  incubation time after which the LL-37 band (4.5 kDa) starts fading: 20 min
Proteinase K [2]
  uncleaved peptide: ~ 5%
